We go through 38 compounds from ChEMBL document CHEMBL5131461, “Discovery of 4-(phenoxymethyl)-1H-1,2,3-triazole derivatives as novel xanthine oxidase inhibitors” (Bioorg Med Chem Lett, 2022).

Active and inactive are the calls of the source. The calls are words filed in the database; no cut-off is given here.

Data set [1] deals with T1, Xanthine dehydrogenase/oxidase (Bos taurus, UniProt P80457). Kind of data set: Inhibition of bovine XO assessed as inhibition of uric acid formation using xanthine as substrate preincubated with enzyme for 10 mins followed by substrate addition and measured for 2 mins by spectrophotometry.
T1 sequence (P80457 whole entry): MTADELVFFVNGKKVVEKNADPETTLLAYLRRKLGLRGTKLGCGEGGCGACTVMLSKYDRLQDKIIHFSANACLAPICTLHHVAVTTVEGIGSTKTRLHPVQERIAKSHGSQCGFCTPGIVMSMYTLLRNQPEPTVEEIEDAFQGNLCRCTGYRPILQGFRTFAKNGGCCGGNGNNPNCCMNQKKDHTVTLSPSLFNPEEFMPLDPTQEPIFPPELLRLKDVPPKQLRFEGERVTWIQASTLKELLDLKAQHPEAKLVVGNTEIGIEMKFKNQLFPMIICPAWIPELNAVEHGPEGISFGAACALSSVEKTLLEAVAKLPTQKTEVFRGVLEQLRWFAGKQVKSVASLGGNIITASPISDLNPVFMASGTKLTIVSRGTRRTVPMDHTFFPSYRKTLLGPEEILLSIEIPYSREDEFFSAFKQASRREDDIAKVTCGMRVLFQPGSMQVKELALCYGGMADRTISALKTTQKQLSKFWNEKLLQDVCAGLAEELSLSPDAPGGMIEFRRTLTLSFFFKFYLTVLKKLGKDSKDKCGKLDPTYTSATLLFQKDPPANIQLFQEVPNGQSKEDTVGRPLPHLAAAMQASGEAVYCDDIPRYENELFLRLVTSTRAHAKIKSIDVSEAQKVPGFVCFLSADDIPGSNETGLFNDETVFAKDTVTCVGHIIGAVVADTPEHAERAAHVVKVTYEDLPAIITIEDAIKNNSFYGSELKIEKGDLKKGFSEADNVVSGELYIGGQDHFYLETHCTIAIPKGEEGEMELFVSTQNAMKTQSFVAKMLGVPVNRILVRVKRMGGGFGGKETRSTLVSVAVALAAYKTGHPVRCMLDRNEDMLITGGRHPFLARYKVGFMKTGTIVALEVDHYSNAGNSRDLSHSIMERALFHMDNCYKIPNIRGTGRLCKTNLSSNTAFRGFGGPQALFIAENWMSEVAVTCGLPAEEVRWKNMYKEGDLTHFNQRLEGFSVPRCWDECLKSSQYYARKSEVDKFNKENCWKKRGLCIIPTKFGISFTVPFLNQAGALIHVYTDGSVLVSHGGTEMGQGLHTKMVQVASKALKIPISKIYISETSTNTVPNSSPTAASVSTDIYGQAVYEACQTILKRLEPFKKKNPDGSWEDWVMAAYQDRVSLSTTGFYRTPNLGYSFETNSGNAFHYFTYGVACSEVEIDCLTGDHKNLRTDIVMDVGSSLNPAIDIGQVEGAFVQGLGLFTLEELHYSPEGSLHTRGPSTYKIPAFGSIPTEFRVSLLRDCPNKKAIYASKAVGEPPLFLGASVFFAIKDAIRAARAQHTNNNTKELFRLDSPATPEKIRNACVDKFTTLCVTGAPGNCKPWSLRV
Data set [2] deals with Rattus norvegicus. Briefly: In vivo Hypouricemic activity against potassium oxonate-induced hyperuricemia rat model assessed as reduction in serum uric acid production at 8 mg/kg, po measured after 2 hrs. Format: functional, organism-based.
For data set [3], the target named is T1, Xanthine dehydrogenase/oxidase. Briefly: Inhibition of bovine XO assessed as inhibition of uric acid formation using xanthine as substrate at 25 uM preincubated with enzyme for 10 mins followed by substrate addition and measured for 2 mins by spectrophotometry. The note with it: cattle, time 12 min.
Data set [4] concerns Rattus norvegicus. Kind of data set: In vivo Hypouricemic activity against potassium oxonate-induced hyperuricemia rat model assessed as reduction in AUC of serum uric acid level at 20 mg/kg, po measured after 0.5 to 8 hrs. Format: functional, organism-based. The note with it: time 0.5-8 hrs.
For data set [5], the system named is Rattus norvegicus. Kind of data set: In vivo Hypouricemic activity against potassium oxonate-induced hyperuricemia rat model assessed as reduction in serum uric acid production at 20 mg/kg, po measured after 2 hrs. The class given is functional, organism-based.
The target in data set [6] is T1, Xanthine dehydrogenase/oxidase. Briefly: Potency index, ratio of allopurinol IC50 to test compound IC50 for bovine XO using xanthine as substrate by spectrophotometry. The following applies: cattle.

With `CCCCn1cc(COc2cc(F)ccc2C=O)nn1`, the IC50 in data set [1] was determined as 3.59 µM.

For the compound `CCC(C)n1cc(COc2ccccc2C=O)nn1` (configuration not stated), in data set [1], the half-inhibitory concentration (IC50) came out at 21.8 µM.

Regarding `Oc1ncnc2[nH]ncc12`, the result in the data set with Rattus norvegicus [2] was Active.

Turning to `CC(C)Cn1cc(COc2ccc(F)cc2C=O)nn1`, in data set [1], the IC50 was found to be 14.3 µM.

For `COc1ccccc1Cn1cc(COc2ccc(F)cc2C=O)nn1`, the 50% inhibitory concentration (IC50) in data set [1] turned out to be 0.94 µM.

On to `N#Cc1cccc(Cn2cc(COc3ccccc3C=O)nn2)c1`, for which, in data set [1], the half-inhibitory concentration (IC50) was 1.71 µM.

Regarding `COc1cccc(Cn2cc(COc3ccccc3[N+](=O)[O-])nn2)c1`, the inhibition at 25 µM in data set [3] was less than 50%.

In the case of `Cc1cccc(Cn2cc(COc3ccccc3C=O)nn2)c1`, the IC50 in data set [1] came to 1.11 µM.

In the case of `Cc1ccccc1Cn1cc(COc2ccccc2C=O)nn1`, the IC50 in data set [1] amounted to 1.63 µM.

In the case of `CC(C)Cn1cc(COc2ccccc2C=O)nn1`, in data set [1], the IC50 is 21.1 µM.

Regarding `CCC(C)n1cc(COc2ccc(F)cc2C=O)nn1` (configuration not stated), the IC50 in data set [1] was found to be 9.36 µM.

Consider `CCCn1cc(COc2ccc(F)cc2C=O)nn1`, for which the 50% inhibitory concentration (IC50) in data set [1] came out at 5.24 µM.

As to `COc1ccccc1Cn1cc(COc2cc(F)ccc2C=O)nn1`, the IC50 in data set [1] came out at 2.07 µM.

`CCn1cc(COc2ccc(F)cc2C=O)nn1`: the IC50 in data set [1] worked out at 3.46 µM.

In the case of `Cc1ccccc1Cn1cc(COc2ccc(F)cc2C=O)nn1`, in data set [1], the IC50 stood at 4.01 µM.

As to `COc1ccccc1Cn1cc(COc2ccccc2C=O)nn1`, the 50% inhibitory concentration (IC50) in data set [1] was 1.45 µM.

Turning to `COc1cccc(Cn2cc(COc3ccc(F)cc3C=O)nn2)c1`, the result in the data set on Rattus norvegicus [4] and in the data set with Rattus norvegicus [5] was Active. The IC50 in data set [1] was found to be 0.7 µM. For the same compound, in data set [6], the “Ratio IC50” value stood at 14.

Take `CCCn1cc(COc2ccccc2C=O)nn1`: the inhibition at 25 µM in data set [3] is less than 50%.

Turning to `O=Cc1ccccc1OCc1cn(Cc2ccccc2)nn1`, in data set [3], the inhibition at 25 µM is less than 50%. The IC50 in data set [1] was more than 25 µM.

`COc1cccc(Cn2cc(COc3ccccc3C=O)nn2)c1`: the IC50 in data set [1] was determined as 1.02 µM.

For the compound `N#Cc1ccccc1Cn1cc(COc2ccccc2C=O)nn1`, in data set [1], the IC50 was 2.22 µM.

Take `CCCCCn1cc(COc2ccc(F)cc2C=O)nn1`: the IC50 in data set [1] is 2.99 µM.

Consider `COc1ccccc1Cn1cc(COc2ccccc2[N+](=O)[O-])nn1`, for which the inhibition at 25 µM in data set [3] is less than 50%.

On to `N#Cc1cccc(Cn2cc(COc3ccc(F)cc3C=O)nn2)c1`, for which, in data set [1], the IC50 was 2.54 µM.

Consider `COc1cccc(Cn2cc(COc3cc(F)ccc3C=O)nn2)c1`, for which the inhibition at 25 µM in data set [3] was less than 50%.

Take `COc1ccccc1Cn1cc(COc2ccccc2C#N)nn1`: the inhibition at 25 µM in data set [3] was less than 50%.

`CC(C)CCn1cc(COc2ccc(F)cc2C=O)nn1`: the IC50 in data set [1] stood at 2.12 µM.

On to `CCn1cc(COc2ccccc2C=O)nn1`, for which, in data set [3], the inhibition at 25 µM was less than 50%.

Turning to `Cc1cccc(Cn2cc(COc3ccc(F)cc3C=O)nn2)c1`, the concentration for half-maximal inhibition (IC50) in data set [1] was 1.18 µM.

`CC(C)CCn1cc(COc2cc(F)ccc2C=O)nn1`: the inhibition at 25 µM in data set [3] was less than 50%.

Regarding `CCCCn1cc(COc2ccc(F)cc2C=O)nn1`, the IC50 in data set [1] amounted to 2.49 µM.

Regarding `COc1cccc(Cn2cc(COc3ccccc3C#N)nn2)c1`, the inhibition at 25 µM in data set [3] was less than 50%.

In the case of `CC(C)n1cc(COc2ccc(F)cc2C=O)nn1`, the IC50 in data set [1] was 2.56 µM.

Take `CCCCn1cc(COc2ccccc2C=O)nn1`: the IC50 in data set [1] turned out to be 13.5 µM.

As to `N#Cc1ccccc1Cn1cc(COc2ccc(F)cc2C=O)nn1`, the IC50 in data set [1] was 4.15 µM.

Take `CCCCCn1cc(COc2ccccc2C=O)nn1`: the IC50 in data set [1] worked out at 18.1 µM.

For the compound `CC(C)CCn1cc(COc2ccccc2C=O)nn1`, the half-maximal inhibitory concentration (IC50) in data set [1] was determined as 16 µM.

As to `CC(C)n1cc(COc2ccccc2C=O)nn1`, the inhibition at 25 µM in data set [3] was less than 50%.

As a reminder, the IC50 is the point on the concentration scale where inhibition reaches its midpoint. The inhibition is the relative decrease from the control value, in per cent.
